Results on 19 substances are retold here after the OligoGym collection.

“And” between values parts separate entries of the source, which are not always exact repeats. Equal entries are not always repeated. HELM strings list units from the 5' end as sugar, base in round brackets, then linkage (d deoxyribose, r ribose, m 2'-O-methyl, p phosphodiester). Strings are as the collection lists them, not checked against the first reports. ss, as = sense and antisense strand; [lna] = locked nucleic acid (LNA); [una] = unlocked nucleic acid; [hna] = hexitol nucleic acid; [s4r] = 4'-thioribose; [fl2r] = 2'-fluoro
Also: test system not given here.

For the data set the following is noted: siRNA.
For “RNA1{r(A)p.r(A)p.r(A)p.r(C)p.r(C)p.r(U)p.r(C)p.r(A)p.r(G)p.r(C)p.r(C)p.r(C)p.m(U)p.m(A)p.r(A)p.r(C)p.r(G)p.r(G)p.r(U)p.r(T)p.r(T)}|RNA2{r(A)p.r(C)p.r(C)p.r(G)p.r(U)p.m(U)p.r(A)p.r(G)p.r(G)p.r(G)p.r(C)p.r(U)p.r(G)p.r(A)p.r(G)p.r(G)p.r(U)p.r(U)p.r(U)p.r(T)p.r(T)}$$$RNA1{StrandType:ss}|RNA2{StrandType:as}$”, the target mRNA knockdown was found to be 69%.
As for “RNA1{r(A)p.r(G)p.r(A)p.r(A)p.r(G)p.m(U)p.r(A)p.r(C)p.r(C)p.r(A)p.r(G)p.r(G)p.r(A)p.r(G)p.r(G)p.r(C)p.r(G)p.r(U)p.r(U)p.r(T)p.r(T)}|RNA2{r(A)p.r(A)p.r(C)p.r(G)p.r(C)p.r(C)p.r(U)p.r(C)p.r(C)p.r(U)p.r(G)p.r(G)p.m(U)p.r(A)p.r(C)p.r(U)p.r(U)p.r(C)p.r(U)p.r(T)p.r(T)}$$$RNA1{StrandType:ss}|RNA2{StrandType:as}$”, the target mRNA knockdown is 69%.
On to “RNA1{r(G)p.r(A)p.r(C)p.r(G)p.[hna](U)p.r(A)p.r(A)p.[hna](A)p.r(C)p.r(G)p.[hna](G)p.r(C)p.r(C)p.[hna](A)p.r(C)p.r(A)p.r(A)p.r(G)p.[hna](U)p.r(U)p.d(T)}|RNA2{r(A)p.r(C)p.[lna](T)p.r(U)p.r(G)p.[lna](T)p.r(G)p.r(G)p.r(C)p.r(C)p.r(G)p.r(U)p.r(U)p.[lna](T)p.r(A)p.r(C)p.r(G)p.[lna](T)p.r(C)p.[lna](G)p.[lna](C)}$$$RNA1{StrandType:ss}|RNA2{StrandType:as}$”, for which the target mRNA knockdown is 7.9%.
As to “RNA1{m(G)p.r(A)p.m(A)p.r(U)p.m(A)p.r(A)p.m(C)p.r(C)p.m(U)p.r(G)p.m(A)p.r(A)p.m(C)p.r(G)p.m(U)p.r(C)p.m(A)p.r(C)p.m(C)p.r(T)p.r(T)}|RNA2{r(G)p.r(G)p.r(U)p.r(G)p.r(A)p.r(C)p.r(G)p.r(U)p.r(U)p.r(C)p.r(A)p.r(G)p.r(G)p.r(U)p.r(U)p.r(A)p.r(U)p.r(U)p.r(C)p.r(T)p.r(T)}$$$RNA1{StrandType:ss}|RNA2{StrandType:as}$”, the target mRNA knockdown was 17%.
Consider “RNA1{r(C)p.r(U)p.r(U)p.r(A)p.r(C)p.r(G)p.r(C)p.r(U)p.r(G)p.r(A)p.r(G)p.r(U)p.r(A)p.r(C)p.r(U)p.r(U)p.r(C)p.r(G)p.r(A)p.r(T)p.r(T)}|RNA2{r(U)p.r(C)p.r(G)p.r(A)p.r(A)p.r(G)p.[lna](U)p.r(A)p.r(C)p.r(U)p.r(C)p.r(A)p.r(G)p.r(C)p.r(G)p.r(U)p.r(A)p.r(A)p.r(G)p.r(T)p.r(T)}$$$RNA1{StrandType:ss}|RNA2{StrandType:as}$”, for which the target mRNA knockdown was 81%.
For “RNA1{m(A)p.r(G)p.m(A)p.r(A)p.m(A)p.r(A)p.m(G)p.r(C)p.m(A)p.r(G)p.m(C)p.r(G)p.m(A)p.r(U)p.m(A)p.r(C)p.m(G)p.r(C)p.m(U)p.r(T)p.r(T)}|RNA2{r(A)p.r(G)p.r(C)p.r(G)p.r(U)p.r(A)p.r(U)p.r(C)p.r(G)p.r(C)p.r(U)p.r(G)p.r(C)p.r(U)p.r(U)p.r(U)p.r(U)p.r(C)p.r(U)p.r(T)p.r(T)}$$$RNA1{StrandType:ss}|RNA2{StrandType:as}$”, the target mRNA knockdown was found to be 34%.
As to “RNA1{r(G)p.r(U)p.r(A)p.r(U)p.r(G)p.r(A)p.r(C)p.r(C)p.r(G)p.r(A)p.r(C)p.r(U)p.r(A)p.r(C)p.r(G)p.r(C)p.r(G)p.r(U)p.r(A)p.r(T)p.r(T)}|RNA2{r(U)p.r(U)p.r(C)p.r(A)p.r(G)p.r(U)p.r(G)p.[una](U)p.r(G)p.r(A)p.r(U)p.r(G)p.r(A)p.r(C)p.r(A)p.r(C)p.r(U)p.r(U)p.r(G)p.r(T)p.r(T)}$$$RNA1{StrandType:ss}|RNA2{StrandType:as}$”, the target mRNA knockdown came to 90%.
Regarding “RNA1{[lna](T)p.r(G)p.r(A)p.r(G)p.r(A)p.r(G)p.r(A)p.r(A)p.r(A)p.r(G)p.r(C)p.r(A)p.r(C)p.r(A)p.r(G)p.r(A)p.r(A)p.r(A)p.r(A)p.[lna](T)p.[lna](T)}|RNA2{[lna](T)p.r(U)p.r(U)p.r(U)p.r(C)p.r(U)p.r(G)p.r(U)p.r(G)p.r(C)p.r(U)p.r(U)p.r(U)p.r(C)p.r(U)p.r(C)p.r(U)p.r(C)p.r(A)p.[lna](T)p.[lna](T)}$$$RNA1{StrandType:ss}|RNA2{StrandType:as}$”, the target mRNA knockdown was 67% and 72%.
“RNA1{r(G)p.r(G)p.r(A)p.r(C)p.r(A)p.r(U)p.r(U)p.r(C)p.r(A)p.r(G)p.r(A)p.r(A)p.r(C)p.r(A)p.r(A)p.r(G)p.r(A)p.r(A)p.r(A)p.[una](U)p.[una](U)}|RNA2{r(U)p.r(U)p.r(U)p.r(C)p.r(U)p.r(U)p.[una](G)p.r(U)p.r(U)p.r(C)p.r(U)p.r(G)p.r(A)p.r(A)p.r(U)p.r(G)p.r(U)p.r(C)p.r(C)p.[una](U)p.[una](U)}$$$RNA1{StrandType:ss}|RNA2{StrandType:as}$”: the target mRNA knockdown stood at 78%.
The result for “RNA1{r(C)p.r(G)p.[s4r](U)p.r(A)p.r(C)p.r(G)p.r(C)p.r(G)p.r(G)p.r(A)p.r(A)p.[s4r](U)p.r(A)p.r(C)p.[s4r](U)p.[s4r](U)p.r(C)p.r(G)p.r(A)p.r(T)p.r(T)}|RNA2{r(U)p.r(C)p.r(G)p.r(A)p.r(A)p.r(G)p.r(U)p.r(A)p.r(U)p.r(U)p.r(C)p.r(C)p.r(G)p.r(C)p.r(G)p.r(U)p.r(A)p.r(C)p.r(G)p.r(T)p.r(T)}$$$RNA1{StrandType:ss}|RNA2{StrandType:as}$” reads 96.3%; that for “RNA1{[fl2r](A)p.r(A)p.[fl2r](A)p.r(C)p.[fl2r](C)p.r(A)p.[fl2r](G)p.r(G)p.[fl2r](A)p.r(A)p.[fl2r](G)p.r(G)p.[fl2r](G)p.r(G)p.[fl2r](A)p.r(A)p.[fl2r](A)p.r(U)p.[fl2r](C)p.r(T)p.r(T)}|RNA2{r(G)p.[fl2r](A)p.r(U)p.r(U)p.r(U)p.r(C)p.r(C)p.r(C)p.r(C)p.r(U)p.r(U)p.r(C)p.r(C)p.r(U)p.r(G)p.r(G)p.r(U)p.r(U)p.r(U)p.r(T)p.r(T)}$$$RNA1{StrandType:ss}|RNA2{StrandType:as}$”, 42%; that for “RNA1{r(C)p.r(U)p.r(U)p.r(A)p.r(C)p.r(G)p.r(C)p.r(U)p.r(G)p.r(A)p.r(G)p.r(U)p.r(A)p.r(C)p.r(U)p.r(U)p.r(C)p.r(G)p.r(A)p.r(T)p.r(T)}|RNA2{r(T)p.r(C)p.r(G)p.r(A)p.r(A)p.r(G)p.r(U)p.[lna](A)p.r(C)p.r(U)p.r(C)p.r(A)p.r(G)p.r(C)p.r(G)p.r(U)p.r(A)p.r(A)p.r(G)p.[lna](T)p.[lna](T)}$$$RNA1{StrandType:ss}|RNA2{StrandType:as}$”, 90%.
As for “RNA1{[fl2r](A)p.r(A)p.[fl2r](C)p.r(U)p.[fl2r](C)p.r(U)p.[fl2r](A)p.r(C)p.[fl2r](U)p.r(G)p.[fl2r](U)p.r(G)p.[fl2r](G)p.r(A)p.[fl2r](G)p.r(U)p.[fl2r](C)p.r(G)p.[fl2r](G)p.r(T)p.r(T)}|RNA2{r(C)p.r(C)p.[fl2r](G)p.r(A)p.r(C)p.r(U)p.r(C)p.r(C)p.r(A)p.r(C)p.r(A)p.[fl2r](G)p.r(U)p.r(A)p.[fl2r](G)p.r(A)p.[fl2r](G)p.r(U)p.r(U)p.r(T)p.r(T)}$$$RNA1{StrandType:ss}|RNA2{StrandType:as}$”, the target mRNA knockdown came out at 25%.
For the substance “RNA1{[s4r](C)p.[s4r](G)p.[s4r](U)p.[s4r](A)p.r(C)p.r(G)p.r(C)p.r(G)p.r(G)p.r(A)p.r(A)p.r(U)p.r(A)p.r(C)p.r(U)p.r(U)p.r(C)p.r(G)p.r(A)p.r(T)p.r(T)}|RNA2{r(U)p.r(C)p.r(G)p.r(A)p.r(A)p.r(G)p.r(U)p.r(A)p.r(U)p.r(U)p.r(C)p.r(C)p.r(G)p.r(C)p.r(G)p.[s4r](U)p.[s4r](A)p.[s4r](C)p.[s4r](G)p.r(T)p.r(T)}$$$RNA1{StrandType:ss}|RNA2{StrandType:as}$”, the target mRNA knockdown came out at 86.1%.
For “RNA1{r(G)p.r(A)p.r(C)p.r(G)p.r(U)p.r(A)p.r(A)p.r(A)p.r(C)p.r(G)p.r(G)p.r(C)p.r(C)p.r(A)p.r(C)p.r(A)p.r(A)p.r(G)p.[hna](U)p.[hna](U)p.r(C)}|RNA2{r(A)p.m(C)p.r(U)p.r(U)p.r(G)p.r(U)p.r(G)p.r(G)p.r(C)p.r(C)p.r(G)p.r(U)p.r(U)p.r(U)p.r(A)p.r(C)p.r(G)p.r(U)p.r(C)p.r(G)p.r(C)}$$$RNA1{StrandType:ss}|RNA2{StrandType:as}$”, the target mRNA knockdown is 57%.
As to “RNA1{r(C)p.[fl2r](U)p.r(A)p.r(A)p.r(G)p.r(C)p.r(C)p.r(U)p.r(G)p.r(U)p.r(U)p.r(U)p.r(C)p.r(U)p.r(U)p.r(C)p.r(C)p.r(U)p.r(C)p.r(T)p.r(T)}|RNA2{r(G)p.r(A)p.r(G)p.r(G)p.r(A)p.r(A)p.r(G)p.r(A)p.r(A)p.r(A)p.r(C)p.r(A)p.r(G)p.r(G)p.r(C)p.r(U)p.r(U)p.r(A)p.r(G)p.r(T)p.r(T)}$$$RNA1{StrandType:ss}|RNA2{StrandType:as}$”, the target mRNA knockdown stood at 82%.
“RNA1{r(A)p.r(A)p.r(A)p.r(C)p.r(C)p.r(C)p.r(C)p.[fl2r](U)p.r(A)p.r(G)p.r(A)p.r(G)p.r(G)p.[fl2r](G)p.r(C)p.r(A)p.r(A)p.r(G)p.r(U)p.r(T)p.r(T)}|RNA2{r(A)p.r(C)p.r(U)p.[fl2r](U)p.r(G)p.r(C)p.r(C)p.r(C)p.r(U)p.r(C)p.[fl2r](U)p.r(A)p.r(G)p.r(G)p.r(G)p.r(G)p.r(U)p.r(U)p.r(U)p.r(T)p.r(T)}$$$RNA1{StrandType:ss}|RNA2{StrandType:as}$” returned a target mRNA knockdown of 82%.
“RNA1{r(A)p.r(C)p.r(C)p.r(U)p.m(U)p.r(A)p.r(A)p.r(G)p.r(G)p.r(A)p.r(C)p.m(C)p.r(A)p.r(C)p.r(C)p.r(G)p.r(G)p.r(A)p.r(U)p.r(T)p.r(T)}|RNA2{r(A)p.r(U)p.r(C)p.r(C)p.r(G)p.r(G)p.m(U)p.r(G)p.r(G)p.r(U)p.r(C)p.r(C)p.r(U)p.m(U)p.r(A)p.r(A)p.r(G)p.r(G)p.r(U)p.r(T)p.r(T)}$$$RNA1{StrandType:ss}|RNA2{StrandType:as}$” yielded a target mRNA knockdown of 72%.
As to “RNA1{r(C)p.r(U)p.r(A)p.r(A)p.r(G)p.r(G)p.r(A)p.r(C)p.r(C)p.r(U)p.r(A)p.r(A)p.r(C)p.r(A)p.r(A)p.[una](A)p.r(G)p.[una](U)p.[una](U)p.r(U)p.r(U)}|RNA2{r(A)p.r(A)p.r(C)p.r(U)p.r(U)p.r(U)p.r(G)p.r(U)p.r(U)p.r(A)p.r(G)p.r(G)p.r(U)p.r(C)p.r(C)p.r(U)p.r(U)p.r(A)p.r(G)p.r(U)p.r(U)}$$$RNA1{StrandType:ss}|RNA2{StrandType:as}$”, the target mRNA knockdown came to 70%.
